The text below walks through data of patent US20180062087A1, “Organic Compound, Organic Semiconductor Material, Organic Thin Film And Method For Producing The Same, Organic Semiconductor Composition, And Organic Semiconductor Device” (Nippon Kayaku Kabushiki Kaisha, priority 2015, published 2018).

Type in all cases: physicochemical
Series [1] can be described thus: Differential scanning calorimetry (transition point, heat resistance). To be noted: DSC endothermic peak indicating phase transition; powder in aluminum pan heated up to 550° C. As for the experimental part:
In the following examples, reactions and measurements in an inert gas atmosphere were conducted with use of a solvent obtained by anhydrous distillation, and other reactions and operations were conducted with use of commercial Grade 1 or Special Grade solvents. The reagents were purified, as required, by anhydrous distillation or the like, and otherwise commercially available Grade 1 or Special Grade reagents were employed. In the examples, following analytical instrument and measurement instrument were employed. The nuclear magnetic resonance spectroscopy was conducted by means of LAMBDA-NMR (395.75 MHz, σ value, ppm, internal standard TMS). The differential scanning calorimetry was conducted by means of a differential scanning calorimeter METTLER-TOLED DSC1.
About 2 mg of each organic compound powder was weighed out and fed hermetically in an aluminum pan. Each sample was set on a differential scanning calorimeter and heated up to 550° C.
Background: DSC measures the heat that a sample takes up or gives off during a temperature scan.

The nature of series [2]: Measurement of solubility in organic solvents at 25° C. The conditions noted are these: for Solubility in organic solvent at 25° C., chloroform / Solubility in organic solvent at 25° C., THN / Solubility in organic solvent at 25° C., toluene: visual inspection; for Solubility in organic solvent at 25° C., THN: tetrahydronaphthalene (THN). As for the experimental part: (§1) About 1 mg of each organic compound powder was weighed and fed into vials, and the weight of the content in each vial was measured precisely. Into these vials, chloroform, toluene, and tetrahydronaphthalene (THN) were added at 25° C. (room temperature). When the added solvent dissolved completely, the mass was measured precisely again. The mass of the organic compound was divided by the total weight of the organic compound and the added solvent, and was multiplied by 100 to obtain solubility. Dissolution or non-dissolution was judged by visual inspection.

Series [3] in a line: Storage stability in a solution state (solution state after one week). The conditions noted are these: solutions of the solubility test.
From the text: The organic compound represented by Formula (A) is required to be soluble in an organic solvent. The organic solvent is not particularly limited as far as being capable of dissolving the organic compound represented by Formula (A). Considering environmental problems and other conditions, the organic solvent is preferably and practically a non-halogenated solvent. Further, considering the stability of a solution obtained by dissolving the organic compound represented by Formula (A) in the organic solvent, the organic compound represented by Formula (A) needs to have reasonably high solubility at room temperature. In the organic solvent, the solubility of the organic compound represented by Formula (A) at 25° C. is usually 0.1 mass % or higher, preferably 0.3 mass % or higher, more preferably 0.5 mass % or higher, and further preferably 0.7 mass % or higher. In chloroform, the solubility of the organic compound represented by Formula (A) at 25° C. is usually 0.1 mass % or higher, preferably 0.3 mass % or higher, more preferably 0.5 mass % or higher, and further preferably 0.7 mass % or higher. In toluene, the solubility of the organic compound represented by Formula (A) at 25° C. is usually 0.1 mass % or higher, preferably 0.3 mass % or higher, more preferably 0.5 mass % or higher, and further preferably 0.7 mass % or higher. In tetrahydronaphthalene, the solubility of the organic compound represented by Formula (A) at 25° C. is usually 0.1 mass % or higher, preferably 0.3 mass % or higher, more preferably 0.5 mass % or higher, and further preferably 0.7 mass % or higher.
as §1

SMILES strings stand for the structures.

For `CCCCCCCCCCc1ccc2c(c1)sc1c3ccc(-c4ccccc4)cc3sc21` [Comp. Ex. 3, reference compound], the Peak top temperature in series [1] is at most 150 °C.

In the case of `CCCCCCc1ccc2cc3sc4c5cc(-c6ccccc6)ccc5sc4c3cc2c1` [Organic compound 1], in series [2] (at the maximum, versus Comparative example 2), the “Solubility in the organic solvent at 25° C. relative to the organic compound in Comparative example 2” value is given as at least 10 times. In series [2] (organic solvent, 25° C., versus Comparative example 1), the “Solubility compared with the organic compound in Comparative example 1” value is on record as “higher solubility”.

`CCCCc1ccc2sc3c4cc5cc(-c6ccccc6)ccc5cc4sc3c2c1` [Organic compound 4] returned a Peak top temperature in series [1] of 218 °C. Also, in series [2] (25° C.), the “Solubility in organic solvent at 25° C., chloroform” value (“Solubility … chloroform” below) came out at 0.5 mass %; the “Solubility in organic solvent at 25° C., THN” value (from here on “Solubility … THN”) turned out to be 0.5 mass %; the “Solubility in organic solvent at 25° C., toluene” value (“Solubility … toluene” below) is on record as 0.5 mass %. The “Solution state after one week” value in series [3] is “no precipitation”.

In series [1], `CCCCCCCCc1ccc2sc3c4cc5cc(-c6ccccc6)ccc5cc4sc3c2c1` [Organic compound 5] came in with a Peak top temperature of 186 °C. Further, in series [2] (25° C.), the “Solubility … chloroform” value amounted to 0.4 mass %; the “Solubility … THN” value is given as 0.4 mass %; the “Solubility … toluene” value is given as 0.4 mass %. The “Solution state after one week” value in series [3] is “no precipitation”.

For the molecule `CCCCCCCCCCc1ccc2cc3sc4c5cc(-c6ccccc6)ccc5sc4c3cc2c1` [Organic compound 6], the Peak top temperature in series [1] is 185 °C. In series [2] (25° C.), the “Solubility … chloroform” value was 0.3 mass %; the “Solubility … THN” value was 0.3 mass %; the “Solubility … toluene” value amounted to 0.2 mass %. Besides, the “Solution state after one week” value in series [3] is listed as “no precipitation”.

Take `CCCCCCc1ccc2cc3sc4c5cc(-c6ccc(CC)cc6)ccc5sc4c3cc2c1` [Organic compound 8]: the Peak top temperature in series [1] was 229 °C. Further, in series [2] (25° C.), the “Solubility … chloroform” value is reported as over 2 mass %; the “Solubility … THN” value worked out at 1.4 mass %; the “Solubility … toluene” value came to 0.9 mass %. Also, the “Solution state after one week” value in series [3] is reported as “no precipitation”.

On to `CCCCCc1ccc(-c2ccc3sc4c5cc6cc(-c7ccccc7)ccc6cc5sc4c3c2)cc1` [Organic compound 9], for which, in series [1], the Peak top temperature came out at 244 °C.
